Data from patent US20210267240A1, “PHOTODETERIORATION INHIBITOR, BEVERAGE COMPRISING THE SAME, AND METHOD FOR INHIBITING PHOTODETERIORATION” (Mitsubishi Gas Chemical Company, Inc., priority 2018, published 2021).

Experiment: Light irradiation storage test of aqueous pyrroloquinoline quinone disodium salt solution in a transparent PET container, HPLC recovery
Assay type: physicochemical
Conditions: used alone, without combination partner
Method: HPLC conditions: Shimadzu LC-2010 Column: YMC-Pack ODS-A Detection wavelength: 259 nm Mobile phase: 30 mM acetic acid-70 mM ammonium acetate Column temperature: 40° C. Light irradiation apparatus: A plant incubator CLH-301 manufactured by Tomy Seiko Co., Ltd. Light irradiation conditions: 30° C. and 20,000Lx All the contents of Volvic that is a commercially available PET bottle beverage, were removed and the container was washed with water. This transparent container was used as a storage container. 5 to 500 mg of BioPQQ was dissolved in 500 g of water, and the relationship between the concentration and the photodeterioration of BioPQQ was examined. First, a mixture of pyrroloquinoline quinone disodium salt and water was added to the storage container, shaken well, and then submitted to ultrasonication for 1 minute to dissolve the salt. The pH was 3.5. The prepared aqueous solution of pyrroloquinoline quinone disodium salt was stored under the above light irradiation conditions. The concentration of pyrroloquinoline quinone was analyzed by HPLC 5 days after the light irradiation. […] 20 mg of BioPQQ was dissolved in 500 g of water ([…]) in the same manner as described above. To this aqueous solution, 100 mg of Red No. 2 was further added (Example A1). […]

O=C1O[C@H]([C@@H](O)CO)C(O)=C1O [ascorbic acid]
photodeterioration inhibition effect (in words): has a photodeterioration inhibition effect
